Here are results for 72 compounds from PubChem BioAssay AID1996.

SMILES strings stand for the structures. In brackets after ≈: the same amount, converted by molar mass.

The conditions of the series: buffer; pH 7.4; 200.0 µM.
`COc1ccc(C(=O)c2c[nH]c(C(=O)N=CN(C)C)c2)cc1` registered a solubility (kinetic) of 42 µg/mL (≈ 140 µM).
Turning to `Cl.O=C(CCN1CCOCC1)Nc1ccc(Cl)cc1`, the kinetic solubility was greater than 45.8 µg/mL.
As for `Cc1ccc(C(=O)NCCC(=O)N2CCOCC2)cc1`, the figure is greater than 41.5 µg/mL.
`Cc1ccc(NC(=O)O/N=C/c2cccc([N+](=O)[O-])c2)cc1` gave a solubility (kinetic) of 9.3 µg/mL (≈ 31.1 µM).
As for `O=C(CCNC(=O)c1ccco1)Nc1ccccc1OC(F)F`, the figure is greater than 48.6 µg/mL; as for `CCC(C)c1ccccc1NC(=S)NC(=O)c1ccco1` (configuration not stated), 6 µg/mL (≈ 19.8 µM); as for `CCC(=O)Nc1sc(Cc2ccc3c(c2)OCO3)c(C)c1C(N)=O`, 5.2 µg/mL (≈ 15 µM).
In the case of `COc1ccc(C)cc1NC(=O)C(=O)N1CCCC1`, the kinetic solubility was 39.1 µg/mL (≈ 149 µM).
For `COc1ccccc1NCCC(=O)O`, the kinetic solubility was greater than 29.3 µg/mL.
`CC1(C(=O)O)CCC(C(=O)Nc2ccc(Cl)c(Cl)c2)C1(C)C` (configuration not stated): the kinetic solubility was greater than 51.6 µg/mL.
As for `Cc1ccc(-c2ccc(S(=O)(=O)N3CC(C)OC(C)C3)cc2)cc1` (configuration not stated), the figure is less than 0.7 µg/mL.
`CCC(=O)N(CCC(c1ccc(C)cc1)c1ccco1)Cc1ccco1` (configuration not stated) displayed a solubility (kinetic) of 45.6 µg/mL (≈ 130 µM).
`COc1cc([N+](=O)[O-])ccc1NC(=O)/C=C\C(=O)O` had a kinetic solubility greater than 39.9 µg/mL.
`CC(=O)C(Cc1ccc(Cl)nc1)Cc1ccc(Cl)nc1` yielded a kinetic solubility of 44.9 µg/mL (≈ 145 µM).
`CCOC(=O)CCn1cnc2ccc([N+](=O)[O-])cc2c1=O`: the kinetic solubility turned out to be 25.2 µg/mL (≈ 86.5 µM).
`NC1=NC(=O)C(Cc2ccc(Br)cc2)S1` (configuration not stated) came in with a kinetic solubility of 36.5 µg/mL (≈ 128 µM).
As for `Cc1cccc(CN(C(=S)Nc2c(C)cccc2C)c2cccnc2)c1`, the solubility (kinetic) is 16.9 µg/mL (≈ 46.7 µM).
Regarding `O=[N+]([O-])c1ccc(-c2cn3ccccc3n2)cc1`, the kinetic solubility worked out at 1.7 µg/mL (≈ 7.11 µM). Against the preceding compound, the solubility kinetic is about 9.9-fold lower.
In turn, `O=C(c1cc2ccccc2o1)N1CCCC1` came in with a solubility (kinetic) greater than 32.3 µg/mL.
`O=C(CNC(=O)c1ccco1)OCc1ccccc1Cl` came in with a solubility (kinetic) greater than 44.1 µg/mL.
As for `CCOC(=O)/C(=C/c1ccc(OC(=O)c2ccncc2)cc1)C(C)=O`, the solubility (kinetic) was 41.8 µg/mL (≈ 123 µM).
`O=S(=O)(Cc1ncc(C(F)(F)F)cc1Cl)c1ccccc1` gave a solubility (kinetic) greater than 50.4 µg/mL.
Compound `C=CCSc1ncccc1C(=O)NCCc1ccccc1` registered a kinetic solubility of 29.3 µg/mL (≈ 98.2 µM).
In turn, `CCOC(=O)C1=C(C)OC(N)=C(C#N)C1c1cccs1` (configuration not stated) gave a solubility (kinetic) of 17.1 µg/mL (≈ 58.9 µM).
Consider `COc1ccc(OC)c(NC(=O)COC(=O)CCNc2ccccc2OC)c1`, for which the solubility (kinetic) came out at 40.8 µg/mL (≈ 105 µM). This solubility kinetic lies about 2.4-fold higher than the previous one.
`C/C(=N/NC(=O)CNC(=O)c1cccnc1)c1ccco1` displayed a solubility (kinetic) greater than 42.9 µg/mL.
With `Cn1nccc1NC(=O)Nc1ccc(OC(F)(F)F)cc1`, the kinetic solubility was greater than 45 µg/mL.
Compound `COc1cccc2c(=O)n(CC(=O)NCCc3ccccc3)ccc12` displayed a solubility (kinetic) of 1.6 µg/mL (≈ 4.76 µM).
Compound `COc1ccc(-c2ncncc2-c2ccccc2)c(O)c1` returned a solubility (kinetic) of 11.6 µg/mL (≈ 41.7 µM).
The compound `NC(=O)c1ccc(NC(=O)COC(=O)c2ccc3ccccc3n2)cc1` displayed a solubility (kinetic) of 18.8 µg/mL (≈ 53.8 µM).
`Cc1c(C(=O)NC2=NCCS2)cccc1[N+](=O)[O-]` had a solubility (kinetic) of 37.5 µg/mL (≈ 141 µM).
With `COCCn1c(-c2cccs2)nc2nc3ccccc3nc21` the figure was 39.7 µg/mL (≈ 128 µM); with `C=CCn1cc(C(=O)OCC)c(=O)c2cc(F)c(F)cc21`, greater than 44 µg/mL.
Compound `O=C(NCc1ccc(F)cc1)C1CC(=O)N(Cc2ccco2)C1` (configuration not stated) came in with a kinetic solubility greater than 47.4 µg/mL.
Compound `S=C(NCc1cccs1)Nc1cc(Cl)cc(Cl)c1` had a kinetic solubility of 0.7 µg/mL (≈ 2.21 µM).
With `COc1ccc(C(=O)CC(=O)C(=O)Nc2ccccc2)cc1`, the kinetic solubility amounted to 34.6 µg/mL (≈ 116 µM).
As to `Cc1ccc(S(=O)(=O)Nc2ccc3[nH]ccc3c2)cc1`, the solubility (kinetic) is greater than 43 µg/mL.
`COc1ccc(C(=O)C(C)OC(=O)c2sc(C)nc2C)cc1` (configuration not stated) gave a solubility (kinetic) of 35.8 µg/mL (≈ 112 µM).
As for `CCCc1ccc(C(=O)NC(=O)c2ccccc2O)cc1`, the figure is 3.2 µg/mL (≈ 11.3 µM); as for `CC(O)C(NC=C1C(=O)OC(C)(C)OC1=O)C(=O)O` (configuration not stated), 39.4 µg/mL (≈ 144 µM).
`Cc1ccccc1OCC(=O)NC1CCCCCCC1` registered a solubility (kinetic) of 4.2 µg/mL (≈ 15.3 µM). This solubility kinetic is about 9.4-fold lower than that of the compound before.
As to `CSc1ccccc1NC(=O)CSc1nncs1`, the kinetic solubility was greater than 44.6 µg/mL.
With `O=C(NNC(=O)c1cc([N+](=O)[O-])ccc1Cl)c1cccnc1` the figure was greater than 48.1 µg/mL; with `CCOc1cc(C2NC(=O)NC2=O)ccc1O` (configuration not stated), greater than 35.4 µg/mL.
With `Cc1ccc(C(=O)Nc2nc(-c3ccc(F)cc3)cs2)o1` the figure was 4.4 µg/mL (≈ 14.6 µM).
For the compound `CNP(=O)(Oc1ccccc1)OC12CC3CC(CC(C3)C1)C2` (configuration not stated), the solubility (kinetic) was greater than 48.2 µg/mL.
In turn, `Nc1c([N+](=O)[O-])cc(-c2cnc[nH]2)cc1[N+](=O)[O-]` returned a solubility (kinetic) of less than 0.1 µg/mL.
`NS(=O)(=O)c1ccc(CNC(=O)Cc2cccs2)cc1` came in with a solubility (kinetic) of 45.1 µg/mL (≈ 145 µM).
As for `COc1cccc(C(=O)OCC(=O)NCC2CCCO2)c1` (configuration not stated), the figure is greater than 44 µg/mL; as for `CC1(C)N2CC3([N+](=O)[O-])CN1CC([N+](=O)[O-])(C2)C3`, 34.5 µg/mL (≈ 135 µM); as for `COc1ccc(-c2nc(N)c(C#N)c(-c3cccnc3)c2C)cc1`, 2.8 µg/mL (≈ 8.85 µM).
`COc1ccc(Cl)cc1C(=O)OCC(=O)c1ccc[nH]1`: the kinetic solubility was 8.4 µg/mL (≈ 28.6 µM). This solubility kinetic lies about 3-fold higher than the previous one.
`Br.C=CCN1CCc2cccc3c2[C@H]1Cc1ccc(O)c(O)c1-3` displayed a kinetic solubility of 27.9 µg/mL.
In the case of `CCOC(=O)C1CCCN(C(=O)c2[nH]c3ccc(OC)cc3c2C)C1` (configuration not stated), the solubility (kinetic) was greater than 51.7 µg/mL.
`Cc1cc(Cl)nc(Cl)c1C(=O)NCCc1ccccc1` returned a solubility (kinetic) greater than 46.4 µg/mL.
The compound `O=C(NCC1CC1)Nc1cccc(C(F)(F)F)c1` gave a solubility (kinetic) of 29.3 µg/mL (≈ 113 µM).
For the compound `Cc1onc(-c2ccccc2Cl)c1C(=O)OCC(=O)N1CCC(C)CC1`, the kinetic solubility is greater than 56.5 µg/mL.
For the compound `CC(O)CNCCCCOc1ccc(OCc2ccccc2)cc1` (configuration not stated), the kinetic solubility was 40.7 µg/mL (≈ 124 µM).
`Cc1cccc(Oc2nc(-c3ccncc3)nc3ccccc23)c1` showed a solubility (kinetic) of less than 0.2 µg/mL.
On to `Cc1ccc(NC(=O)CNC(=O)COc2ccccc2)nc1`, for which the solubility (kinetic) worked out at 14.9 µg/mL (≈ 49.8 µM).
The compound `Cc1ccc(NC(=O)CNC(=O)OCc2ccccc2)cc1C` registered a solubility (kinetic) of 10.3 µg/mL (≈ 33 µM).
Regarding `CSc1ccccc1NC(=O)COC(=O)c1ccc(O)cc1`, the kinetic solubility stood at 12.2 µg/mL (≈ 38.4 µM).
In the case of `Cc1ccc(N2C(=O)CCC2(C#N)c2ccccc2)cc1` (configuration not stated), the solubility (kinetic) is greater than 41.5 µg/mL.
`Cc1cc(C)c2c(NC(=O)CCl)nn(C)c2n1` showed a kinetic solubility greater than 37.9 µg/mL.
In turn, `CN(C)S(=O)(=O)NCCNc1ccc(C(F)(F)F)cc1[N+](=O)[O-]` showed a solubility (kinetic) of 18.2 µg/mL (≈ 51.1 µM).
As for `O=C(Nc1ccc([N+](=O)[O-])cc1)N1CCCCCC1`, the figure is greater than 39.5 µg/mL; as for `O=C(NCC1CCCO1)c1cc2ccccc2cc1O` (configuration not stated), greater than 40.7 µg/mL; as for `CC(C)n1c(C(F)(F)F)nc2cc(C(=O)N3CCOCC3)ccc21`, greater than 51.2 µg/mL.
The compound `O=C1N=C(N2CCOCC2)S/C1=C/c1cc2c(cc1[N+](=O)[O-])OCO2` yielded a kinetic solubility of 44.8 µg/mL (≈ 123 µM).
As for `Cc1cc(NC(=O)CSCc2ccccc2C)no1`, the solubility (kinetic) turned out to be 18.3 µg/mL (≈ 66.2 µM). Compared with the last compound, the solubility kinetic is about 2.4-fold lower.
Turning to `Cc1ccc(C(=O)NC2CC(C)(C)NC(C)(C)C2)cc1Cl`, the kinetic solubility was 43.6 µg/mL (≈ 141 µM). Compared with the last compound, the solubility kinetic is about 2.4-fold higher.
With `CC(C)(C)c1ccc(OCC(=O)Nc2ccncc2)c(Br)c1` the figure was 10.4 µg/mL (≈ 28.6 µM).

One may read the kinetic solubility as solubility judged after dilution from a stock solution rather than from solid.
